Key:
Trypanosoma cruzi [1] = assay: GSK_TCAKS: pIC50 Trypanosoma cruzi viability assay using beta-GAL activity. This assay was run at single shot at 5uM compound concentration per well. The biological reagents consisted of NIH-3T3 host cells and trypomastigotes parasitic cells; both cell types were set to a 3.3 * 10^5 cells/mL dilution in assay DMEM by means of a CASY cell counter device using a 60um capillary. 6 uL of the mixture were dispensed per well (about 1 * 10^3 host-cells and 1 * 10^3 parasites) with a Multidrop Combi dispenser. […] In all wells, the percentage of DMSO never exceeded 0.5%. Plates incubated for four days at 37C, 5% CO2. The substrate used for the assay fluorescence intensity (FLINT) readout was resorufin-beta-D-galactopiranoside (Sigma-Aldrich) at 5uM per well. It was diluted in PBS supplemented with the soft detergent Igepal (Fluka).; format: functional, organism-based, Mus musculus; conditions: Tulahuen, NIH3T3
Trypanosoma cruzi [2] = assay: (§1) GSK_TCAKS: pIC50 Trypanosoma cruzi Imaging: Infected Cells. […] Cells were then washed once with PBS before infection. T. cruzi trypomastigotes, collected at days 5 to 8 after infection from LLC-MK2 parasite infected cultures, were allowed to swim out for 4h at 37C from a centrifuged pellet (2,500 rpm/10 min/room temperature). Trypomastigotes were then collected and counted in a CASY Cell Counter. Trypomastigotes, in supplemented DMEM, were added to H9c2 cultures in a multiplicity of infection of 1 and incubated for 18 h. Cells were washed once with PBS before incubation of the infected H9c2 monolayer with trypsin (Life-Technologies) to detach cells from the flask. Cells were counted in a CASY Cell Counter using a 150 um capillary and their density set at 5 * 10^4 cells per mL in supplemented assay DMEM. Infected H9c2 were dispensed into 384-well poly-lysine coated assay plates at 50uL per well using a Multidrop Combi dispenser. After seeding them, the plates were incubated at 37C, 5% CO2 for 72h. Cultures were then fixed and stained by addition of 50 uL of a solution containing 8% formaldehyde and 4 uM DRAQ5 DNA dye (BioStatus, UK) per well. […] Five images were collected per well for reliable statistical analysis. Automated image analysis was performed with a script developed on Acapella High Content Imaging and Analysis Software (PerkinElmer). Output: percentage of infected cells per well as a second infection marker.; format: functional, organism-based, Rattus norvegicus; conditions: H9c2, 4 h
Trypanosoma cruzi [3] = assay: GSK_TCAKS: pIC50 Trypanosoma cruzi Imaging: Amastigotes/Cell. […] Cells were then washed once with PBS before infection. T. cruzi trypomastigotes, collected at days 5 to 8 after infection from LLC-MK2 parasite infected cultures, were allowed to swim out for 4h at 37C from a centrifuged pellet (2,500 rpm/10 min/room temperature). Trypomastigotes were then collected and counted in a CASY Cell Counter. Trypomastigotes, in supplemented DMEM, were added to H9c2 cultures in a multiplicity of infection of 1 and incubated for 18 h. Cells were washed once with PBS before incubation of the infected H9c2 monolayer with trypsin (Life-Technologies) to detach cells from the flask. Cells were counted in a CASY Cell Counter using a 150 um capillary and their density set at 5 * 10^4 cells per mL in supplemented assay DMEM. Infected H9c2 were dispensed into 384-well poly-lysine coated assay plates at 50uL per well using a Multidrop Combi dispenser. After seeding them, the plates were incubated at 37C, 5% CO2 for 72h. Cultures were then fixed and stained by addition of 50 uL of a solution containing 8% formaldehyde and 4 uM DRAQ5 DNA dye (BioStatus, UK) per well. […] Five images were collected per well for reliable statistical analysis. Automated image analysis was performed with a script developed on Acapella High Content Imaging and Analysis Software (PerkinElmer). Output: number of amastigotes per cell as infection level measurement.; format: functional, organism-based, Rattus norvegicus; conditions: H9c2, 4 h
Trypanosoma cruzi [4] = assay: as §1, with “H2C9” for “Trypanosoma cruzi”, “H9c2 Host Cardiomyocytes.” for “Infected Cells.”, “Number” for “percentage”, “H9c2 Host Cardiomyocytes nuclei to determine drug-related cytotoxicity.” for “infected cells per well as a second infection marker.”; format: functional, organism-based, Rattus norvegicus; conditions: H9c2, 4 h
Leishmania donovani [5] = assay: GSK_TCAKS: pIC50 Leishmania donovani viability assay using fluorescence intensity. Assay plates (1536-well) were prepared by adding 30nL per well of compound. For single shot assay, the final compound concentration was 5uM. […] Briefly, eGFP LdBOB axenic amastigotes were harvested, fixed and counted in a CASY cell counter (Roche-Applied Science). A final concentration of 1.5 * 10^5 cells per well were prepared in amastigote media containing 500 U/mL penicillin/streptomycin (Invitrogen) and 6uL was dispensed to each experimental well using a Multidrop Combi dispenser (Thermo Scientific). 6uL of assay media was dispensed to control columns used as reference for 100% compound response. Following incubation for 72 h at 37C, 5% CO2, 2 uL of resazurin was added to each well at a final concentration of 0.5 mM in phosphate buffered saline (PBS) with IGEPAL (Sigma-Aldrich), 0.05% (v/v).; format: functional, organism-based
Leishmania donovani [6] = assay: (§2) GSK_TCAKS: pIC50 Leishmania donovani Imaging: Infected Macrophages. Assay plates (384-well) were prepared by adding 250nL of compound to each well. For single shot assay, the final compound concentration was 5 uM. […] Automated image analysis was performed with a script developed on Acapella High Content Imaging and Analysis Software (PerkinElmer). Output: Percent of infected macrophage cells were reported for each well.; format: functional, organism-based, Homo sapiens; conditions: THP-1
Leishmania donovani [7] = assay: as §2, with “Amastigotes/Macrophages.” for “Infected Macrophages.”, “Average number” for “Percent”, “amastigotes per” for “infected”, “cell” for “cells”; format: functional, organism-based, Homo sapiens; conditions: THP-1
Leishmania donovani [8] = assay: as §2, with “THP-1 Host” for “Infected”, “THP-1 cell count” for “Percent of infected macrophage cells”; format: functional, organism-based, Homo sapiens
[9] = tested on: Trypanosoma brucei brucei; assay: GSK_TCAKS: pIC50 Trypanosoma brucei viability assay using fluorescence intensity. Assay plates (1536-well) were prepared by dispensing 25nL of compound solution per well using an Echo acoustic dispenser (Labcyte).; format: functional, organism-based; conditions: Lister 427, 2 h
[10] = tested on: Trypanosoma brucei brucei; assay: GSK_TCAKS: pIC50 Trypanosoma brucei viability assay using luminiscence. Assay plates (1536-well) were prepared. T. brucei cultures were harvested and counted in a CASY cell counter. A parasite suspension was prepared at a final concentration of 5 * 10^4 cells/mL in complete HMI9 medium and 6uL was dispensed to all wells containing compounds using a Multidrop Combi dispenser. 6uL of HMI9 media with 0.4% DMSO were dispensed to control columns. Plates were incubated for 24 h at 37C, 5% CO2 then tempered for 10 min at room temperature. ATP content was quantified by adding 4 uL of CellTiter-Glo Reagent (Promega) according to the manufacturer's instructions. Luminescence was measured using a ViewLux.; format: functional, organism-based; conditions: Lister 427, CASY
[11] = GSK_TCAKS: pIC50 HepG2 human cell line viability assay using luminiscence. […] Seeding density was checked to ensure that new mono-layers were not more than 50% confluent at the time of harvesting. Cell suspension was added to 500 mL of the same medium at a final density of 1.2 * 10^5 cells/mL. This cell suspension was dispensed (25 uL, 3000 cells per well) into 384-well clear-bottom plates using a Multidrop Combi dispenser. Prior to addition of the cell suspension, the screening compounds (250 nL) were pre-dispensed into the plates with an Echo liquid handler. Plates were incubated for 48 h at 37C, 5% CO2. After incubation, plates equilibrated at room temperature for 30 min before proceeding to develop the luminescent signal. The signal developer, CellTiter-Glo Reagent, was allowed to equilibrate at room temperature for 30 min and added to the plates (25uL per well) using a Multidrop Combi dispenser. Plates were left for 10 min at room temperature for stabilization and then read using a ViewLux.; format: toxicity, cell-based
NIH3T3 = assay: GSK_TCAKS: pIC50 NIH 3T3 cell line viability assay using luminiscence. Tissue culture surface treated assay plates (1536-well) were used. […] The 100% cells survival control was determined exposing the host-cells to a 0.5% DMSO concentration, whereas the 100% toxicity control was achieved by seeding the cells in presence of Amphotericin B at 50uM. Plates were incubated for four days at 37C, 5% CO2. The assay readout was developed by addition of 5uL of CellTiter-Glo Reagent following the manufacturer's instructions. Luminiscence was measured using a ViewLux.; format: functional, cell-based; conditions: Mus musculus, NIH3T3, 96 h
[12] = target: Sterol 14-alpha demethylase (Trypanosoma cruzi (strain CL Brener), UniProt Q7Z1V1); assay: GSK_TCAKS: pIC50 CYP51 from Trypanosoma cruzi.; format: functional
Chain of Sterol 14-alpha demethylase (Q7Z1V1 whole entry): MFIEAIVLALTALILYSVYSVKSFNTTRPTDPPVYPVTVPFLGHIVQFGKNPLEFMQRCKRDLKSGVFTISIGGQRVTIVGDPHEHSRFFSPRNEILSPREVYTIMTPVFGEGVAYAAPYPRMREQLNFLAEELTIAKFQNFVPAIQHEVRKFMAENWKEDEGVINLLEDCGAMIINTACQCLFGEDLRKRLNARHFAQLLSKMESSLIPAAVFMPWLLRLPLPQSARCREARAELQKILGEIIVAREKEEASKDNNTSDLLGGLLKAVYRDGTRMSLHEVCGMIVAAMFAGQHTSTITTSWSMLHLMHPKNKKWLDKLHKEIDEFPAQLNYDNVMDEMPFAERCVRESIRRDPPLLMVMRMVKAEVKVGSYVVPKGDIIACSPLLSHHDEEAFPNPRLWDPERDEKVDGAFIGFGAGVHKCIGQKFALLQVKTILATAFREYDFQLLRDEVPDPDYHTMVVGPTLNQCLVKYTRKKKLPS

Row | SMILES | IC50 (Trypanosoma cruzi [1]) [µM] | IC50 (Trypanosoma cruzi [2]) [µM] | IC50 (Trypanosoma cruzi [3]) [µM] | IC50 (Trypanosoma cruzi [4]) [µM] | IC50 (Leishmania donovani [5]) [µM] | IC50 (Leishmania donovani [6]) [µM] | IC50 (Leishmania donovani [7]) [µM] | IC50 (Leishmania donovani [8]) [µM] | IC50 [9] [µM] | IC50 [10] [µM] | IC50 at 48 h [11] [µM] | IC50 (NIH3T3) [µM] | IC50 [12] [µM]
1 | O=C(c1ccc(OCCCc2cnc[nH]2)cc1)C1CC1 | 0.355 | 1.58 | 1.26 | > 50.1 | > 50.1 | > 50.1 | 7.94 | > 50.1 | 10 | > 39.8 | > 100 | 12.6 | 0.0501
2 | Cc1cc(C)c(C#N)c(SCC(=O)c2ccc3c(c2)OCO3)n1 | 2 | 0.794 | 0.398 | > 50.1 | > 50.1 | > 50.1 | > 50.1 | > 50.1 | 20 | 15.8 | > 100 | > 50.1 | > 100
3 | Cc1cc(Br)cc(C(=O)c2c(C(C)C)c(=O)[nH]c(=O)n2Cc2ccnc(N)c2)c1 | 0.398 | 0.316 | 0.251 | > 50.1 | > 50.1 | 31.6 | 20 | 39.8 | 12.6 | 25.1 | > 100 | 15.8 | 0.0158
4 | O=C1CN(C2CCCc3c(OCc4ccncc4)cccc32)C(=O)N1C1CCCCC1 (stereo unspecified) | 0.251 | 0.0158 | 0.0126 | > 50.1 | > 50.1 | > 50.1 | > 50.1 | > 50.1 | 15.8 | > 39.8 | > 100 | > 50.1 | 0.02
5 | Cc1cccc(NS(=O)(=O)c2ccc3c(c2)C(=O)c2cc(S(=O)(=O)Nc4cccc(C)c4C)ccc2-3)c1C | 0.398 | 0.398 | 0.398 | 31.6 | > 50.1 | > 50.1 | > 50.1 | > 50.1 | 7.94 | 10 | > 100 | > 50.1 | > 100
6 | O=C(Cn1cnc([N+](=O)[O-])n1)Nc1ccc(Cl)cc1C(=O)c1ccccc1 | 0.251 | 1.26 | 0.316 | > 50.1 | > 50.1 | > 50.1 | > 50.1 | > 50.1 | 20 | 31.6 | > 100 | > 50.1 | 10
7 | N#Cc1ccc(S(=O)(=O)N2CCN(Cc3cccc(-c4ccncc4)c3)CC2)cc1 | 0.398 | 0.251 | 0.2 | 25.1 | > 50.1 | > 50.1 | 1.26 | > 50.1 | > 39.8 | 20 | > 100 | 12.6 | 0.0794
8 | CN(C)Cc1ccc(N2CCC(NS(=O)(=O)c3ccc(Cl)cc3)CC2)cc1 | 0.794 | 0.316 | 0.251 | 12.6 | 39.8 | > 50.1 | 25.1 | 25.1 | 25.1 | 31.6 | 50.1 | 15.8 | > 100
9 | Oc1nccc2ccc(-c3ccncc3)cc12 | 0.2 | 0.251 | 0.251 | > 50.1 | > 50.1 | > 50.1 | 20 | 39.8 | 31.6 | > 39.8 | > 100 | > 50.1 | 0.0158
10 | CNc1cc(Cn2c(C(=O)c3cc(C)cc(Cl)c3)c(C(C)C)c(=O)[nH]c2=O)ccn1 | 0.0398 | 0.02 | 0.02 | > 50.1 | > 50.1 | 20 | 12.6 | > 50.1 | 25.1 | 25.1 | > 100 | 10 | 0.0316
11 | O=c1[nH]cnc2c([C@@H]3O[C@H](CO)[C@@H](O)[C@H]3O)n[nH]c12 [FORMYCIN B] | 0.141 | 0.501 | 0.316 | > 50.1 | 0.398 | 2 | 0.398 | > 50.1 | 0.00316 | 0.00501 | > 100 | > 50.1 | > 100
12 | CC(C)(C)C(O)(CCc1ccc(Cl)cc1)Cn1cncn1 (stereo unspecified) [TEBUCONAZOLE] | 0.126 | 0.251 | 0.2 | > 50.1 | 3.16 | > 50.1 | > 50.1 | > 50.1 | > 39.8 | > 39.8 | > 100 | > 50.1 | 0.126
